Source: article PMC4226252, “Biochemical interaction of anti-HCV telaprevir with the ABC transporters P-glycoprotein and breast cancer resistance protein” (BMC Research Notes, 2013)
Several values for one entry are separate records, joined by “and”; a condition that tells them apart may be missing. Identical values can stand only once. Like-named read-outs stand apart in the source and are kept apart here.

Assays:
P-gp [1] = target: T1, P-gp (Homo sapiens, UniProt P08183); set-up: expressed in transfected cells; host or cells: K562/MDR cells (plasma membrane vesicles); method as in PMID 23293300, PMID 22331658; settings: cellular system; cited from earlier work
BCRP [2] = target: T2, BCRP (Homo sapiens, UniProt Q9UNQ0); set-up: expressed in transfected cells; host or cells: K562/BCRP cells (plasma membrane vesicles); method as in PMID 23293300, PMID 22331658; settings: cellular system; cited from earlier work
T2 sequence (Q9UNQ0 1-655): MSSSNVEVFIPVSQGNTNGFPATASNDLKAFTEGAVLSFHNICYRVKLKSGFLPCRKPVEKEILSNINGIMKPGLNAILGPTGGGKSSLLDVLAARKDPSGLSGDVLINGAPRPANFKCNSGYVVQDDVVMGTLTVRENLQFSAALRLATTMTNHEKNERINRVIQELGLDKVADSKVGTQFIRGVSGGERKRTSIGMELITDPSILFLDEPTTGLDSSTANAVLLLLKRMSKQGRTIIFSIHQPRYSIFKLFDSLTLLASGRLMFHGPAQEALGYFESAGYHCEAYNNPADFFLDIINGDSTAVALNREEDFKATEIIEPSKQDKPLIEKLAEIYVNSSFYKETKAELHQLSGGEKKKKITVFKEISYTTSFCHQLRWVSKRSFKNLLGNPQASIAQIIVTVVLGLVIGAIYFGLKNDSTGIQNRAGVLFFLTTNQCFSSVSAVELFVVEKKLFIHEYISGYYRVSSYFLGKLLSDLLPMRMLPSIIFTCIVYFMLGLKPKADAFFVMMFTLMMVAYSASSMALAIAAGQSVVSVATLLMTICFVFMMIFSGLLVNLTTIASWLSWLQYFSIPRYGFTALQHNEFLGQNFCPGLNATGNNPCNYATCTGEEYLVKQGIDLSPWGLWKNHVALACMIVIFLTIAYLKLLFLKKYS

P-gp [3] = target: T1, P-gp
Protocol: (§3) Then, they were mixed with [^3H]-labeled VCR (for P-gp) or E1S or MTX (for BCRP), and telaprevir at the indicated concentration in the reaction buffer (0.25 mol/L sucrose, 10 mmol/L HEPES-NaOH (pH 7.4), 10 mmol/L MgCl2, 10 mmol/L phosphocreatine, 100 μg/mL creatine phosphokinase, with or without 3 mmol/L adenosine triphosphate (ATP)) in a total volume of 50 μL. After 10 min of incubation at 25°C, the reaction mixture was stopped by the addition of ice-cold stop solution (0.25 mol/L sucrose, 10 mmol/L HEPES-NaOH (pH 7.4), 0.1 mol/L NaCl) and centrifuged at 18,000 × g for 10 min at 4°C. The pellets were solubilized by a liquid scintillation counter to measure their radioactivity levels. For kinetics analyses, the Michaelis–Menten equation and Lineweaver–Burk plots were applied to visualize the mechanism of transport inhibition, as v = Vmax[S]/([S] + (1 + [I]/Ki)Km), where [S] and [I] are concentrations of substrate and inhibitor respectively, and v is velocity of substrate uptake by transporter.
(§4) Figure 1 Effect of telaprevir on the intravesicular transport of vincristine sulfate (VCR) by P-gp. A. The ability to transport VCR in telaprevir-absent or -present conditions was determined by measuring the radioactivity taken up in membrane vesicles. B. Analyses of Lineweaver–Burk plots of inhibition of VCR uptake by P-gp. The VCR concentration was 100 nmol/L (A) and 50, 100, and 200 nmol/L (B), and of telaprevir was 0, 1, 10, and 100 μmol/L (A) and 20 μmol/L (B), respectively. Membrane vesicles from K562/MDR cells were mixed with each concentration of VCR, telaprevir, and 3 mmol/L of ATP in the incubation medium as described in the Methods section. VCR uptake is shown for parental K562 (white column for ATP-absent; gray column for ATP-present) and K562⁄MDR (dark-gray column for ATP-absent; black column for ATP-present) (A) and the inverse is shown for no inhibitor (open rhombus) and with telaprevir (black circle) (B). Results are means ± SD of triplicate (A) or quadruplicate (B) determinations.

BCRP [4] = target: T2, BCRP
Protocol: as §3
(§5) A. The ability to transport E1S at telaprevir-absent or -present conditions was determined by measuring the radioactivity of [^3H]-E1S taken up in membrane vesicles. A similar experiment was done for MTX. […] E1S concentration was 50 nmol/L (A) and 50, 100, and 200 nmol/L (B), and of telaprevir was 0, 1, 10, and 100 μmol/L (A) and 50 μmol/L (B), respectively. MTX concentration was 100 nmol/L (A), and 100, 200 and 400 nmol/L (B). Membrane vesicles of K562/BCRP cells were used.

OCT2 = settings: cited from earlier work
MATE1 = settings: cited from earlier work
OATP1B1 = settings: cited from earlier work
OATP1B = settings: cited from earlier work
OCT1 = settings: cited from earlier work
P-gp [5] = target: T1, P-gp; test: biochemical
Protocol: as §3, §4

BCRP [6] = target: T2, BCRP; test: biochemical; settings: for IC50: IC50 of telaprevir on BCRP-mediated transport; for Ki: Lineweaver-Burk plot, 50 μmol/L telaprevir
Protocol: as §3, §5

P-gp [7] = target: T1, P-gp; test: Photoaffinity labeling of P-gp with [125I]-IAAP; assay type: binding; set-up: expressed in transfected cells; host or cells: K562/MDR cells (plasma membrane vesicles); settings: for P-gp band intensity (% of no-inhibitor): human, 10 min, pH 7.4
Protocol: (§1) Photoaffinity labeling assay was done as described previously. In brief, plasma membrane fractions (45 μg protein/sample) were pre-incubated at 4°C for 5 min at the indicated concentration of telaprevir in 0.25 mol/L sucrose solution containing 10 mmol/L HEPES-NaOH (pH 7.4). Then, 5 nmol/L radioactive iodine-labeled IAAP, i.e., [^125I]-IAAP (2200 Ci/mmol), was added and the mixture incubated for an additional 10 min. Samples were kept on ice and illuminated with an ultraviolet lamp (B-100AP; UVP, Upland, CA, USA) at 365 nm for 30 min. These processes were carried out on ice. For the BCRP assay, the labeled BCRP protein was solubilized in a buffer (1% NP-40, 20 mmol/L Tris–HCl (pH 7.4), 150 mmol/L NaCl, 1 mmol/L ethylenediamine tetra-acetic acid (EDTA)) and immunoprecipitated with anti-BCRP antibody BXP-21 (Millipore, Billerica, MA, USA), then solubilized by Laemmli sodium dodecyl sulfate (SDS) buffer. For the P-gp assay, membrane fractions were solubilized directly by Laemmli SDS buffer. Samples were separated by sodium dodecyl sulfate-polyacrylamide gel electrophoresis (SDS-PAGE), and gels were dried. The binding of [^125I]-IAAP with P-gp and BCRP was quantified using a FLA7000 Bioimage Analyzer (Fuji Film, Tokyo, Japan) and Multi-Gauge software (Fuji Film).
(§2) Figure 3 Effect of telaprevir on photoaffinity labeling of P-gp and BCRP with [^125I]-IAAP. K562/MDR- or K562/BCRP-vesicles were mixed with the indicated concentrations of telaprevir for 5 min. Vesicles were pre-incubated with 5 nmol/L [^125I]-IAAP (2200 Ci/mmol) for 10 min, and then illuminated with a UV lamp (365 nm) for 30 min. IAAP-labeled protein was solubilized by Laemmli SDS buffer directly (for the P-gp assay) or after immunoprecipitation (for the BCRP assay), and subjected to SDS-PAGE. Signals were visualized and analyzed with a FLA7000 system. The black arrowheads are P-gp or BCRP. […] The binding of [^125I]-IAAP with P-gp and BCRP was calculated from standard curve analysis using a FLA7000 Bioimage Analyzer (Fuji Film, Tokyo, Japan) and Multi-Gauge software (Fuji Film).

BCRP [8] = target: T2, BCRP; test: Photoaffinity labeling of BCRP with [125I]-IAAP; assay type: binding; set-up: expressed in transfected cells; host or cells: K562/BCRP cells (plasma membrane vesicles); settings: for BCRP band intensity (% of no-inhibitor): human, 10 min, pH 7.4
Protocol: as §1
as §2, with “Film). […] I copied these numbers as results for the inhibitors, although gels and blots are otherwise left out. / The value 0 under the 'K562 vesicle' control lane in panels A and B is left out because it belongs to no substance.” for “Film).”

T1 sequence (P08183 whole entry): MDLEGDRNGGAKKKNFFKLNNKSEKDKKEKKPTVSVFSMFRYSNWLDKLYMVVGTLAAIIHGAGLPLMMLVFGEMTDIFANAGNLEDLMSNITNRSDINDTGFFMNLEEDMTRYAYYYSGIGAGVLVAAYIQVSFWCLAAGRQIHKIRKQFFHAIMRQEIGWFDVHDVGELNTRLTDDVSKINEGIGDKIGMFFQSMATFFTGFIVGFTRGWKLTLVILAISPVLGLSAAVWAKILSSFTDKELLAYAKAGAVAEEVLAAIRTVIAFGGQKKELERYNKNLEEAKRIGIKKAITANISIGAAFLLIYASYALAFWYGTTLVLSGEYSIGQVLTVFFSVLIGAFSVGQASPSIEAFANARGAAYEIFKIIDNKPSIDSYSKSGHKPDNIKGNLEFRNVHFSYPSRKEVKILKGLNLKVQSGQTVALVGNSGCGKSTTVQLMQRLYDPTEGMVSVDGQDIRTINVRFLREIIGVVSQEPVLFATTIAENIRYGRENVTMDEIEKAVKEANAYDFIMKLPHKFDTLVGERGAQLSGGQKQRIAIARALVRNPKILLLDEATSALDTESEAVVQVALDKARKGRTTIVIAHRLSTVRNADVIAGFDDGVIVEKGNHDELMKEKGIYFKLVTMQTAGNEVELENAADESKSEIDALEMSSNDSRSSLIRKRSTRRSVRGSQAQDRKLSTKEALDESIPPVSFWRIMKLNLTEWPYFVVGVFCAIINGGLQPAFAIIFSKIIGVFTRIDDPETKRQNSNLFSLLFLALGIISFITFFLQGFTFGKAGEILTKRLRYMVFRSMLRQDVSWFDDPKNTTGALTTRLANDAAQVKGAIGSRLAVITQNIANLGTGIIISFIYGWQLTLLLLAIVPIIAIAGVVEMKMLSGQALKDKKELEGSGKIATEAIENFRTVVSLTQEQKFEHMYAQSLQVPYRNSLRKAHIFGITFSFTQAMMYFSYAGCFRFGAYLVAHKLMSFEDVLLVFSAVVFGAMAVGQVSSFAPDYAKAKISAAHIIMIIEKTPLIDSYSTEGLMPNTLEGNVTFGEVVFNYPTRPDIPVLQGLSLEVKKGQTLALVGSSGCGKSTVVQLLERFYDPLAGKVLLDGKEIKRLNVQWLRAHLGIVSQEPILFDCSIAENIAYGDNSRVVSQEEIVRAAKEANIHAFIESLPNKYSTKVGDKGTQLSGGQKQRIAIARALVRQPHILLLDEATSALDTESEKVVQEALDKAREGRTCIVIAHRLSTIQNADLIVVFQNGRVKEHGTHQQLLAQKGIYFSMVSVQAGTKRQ

CC(C)(C)NC(=O)N[C@H](C(=O)N1C[C@H]2[C@@H]([C@H]1C(=O)NC(CC1CCC1)C(=O)C(N)=O)C2(C)C)C(C)(C)C (stereo partly drawn) [boceprevir]
Inhibitory effect on P-gp (P-gp [1]): very low | IC50 (BCRP [2]): ~80 µM

CCC[C@H](NC(=O)[C@@H]1[C@H]2CCC[C@H]2CN1C(=O)[C@@H](NC(=O)[C@@H](NC(=O)c1cnccn1)C1CCCCC1)C(C)(C)C)C(=O)C(=O)NC1CC1 [telaprevir]
Inhibitory mode (P-gp [3]): competitive | Vmax (P-gp [3]; human, 10 min, 20 μmol/L, pH 7.4): 7.1 pmol/mg/10 min | Inhibitory mode (BCRP [4]): competitive | IC50 (OCT2): 6.4 µM | IC50 (MATE1): 23 µM | IC50 (OATP1B1): 2.2 µM | IC50 (OATP1B): 36.8 µM | IC50 (OCT1): 20.7 µM | Ki (P-gp [5]): 4.8 µM | IC50 (P-gp [5]; IC50 of telaprevir on P-gp-mediated transport, substrate VCR, K562/MDR vesicles): ~7 µM and 7 µM | IC50 (BCRP [6]; substrate E1S, K562/BCRP vesicles): 30 µM | IC50 (BCRP [6]; substrate MTX, K562/BCRP vesicles): 31 µM | IC50 (BCRP [6]; substrate not specified): ~30 µM | Ki (BCRP [6]; BCRP-mediated E1S transport): 44 µM and 44.4 µM | Ki (BCRP [6]; BCRP-mediated MTX transport): 94.8 µM | IC50 (P-gp [7]; IC50 on [125I]-IAAP binding with P-gp, K562/MDR vesicles, 5 nmol/L [125I]-IAAP): 16.5 µM | P-gp band intensity (% of no-inhibitor) (P-gp [7]; 2.5 μmol/L): 85 % of no-inhibitor | P-gp band intensity (% of no-inhibitor) (P-gp [7]; 5 μmol/L): 71 % of no-inhibitor | P-gp band intensity (% of no-inhibitor) (P-gp [7]; 10 μmol/L): 64 % of no-inhibitor | P-gp band intensity (% of no-inhibitor) (P-gp [7]; 20 μmol/L): 47 % of no-inhibitor | P-gp band intensity (% of no-inhibitor) (P-gp [7]; 40 μmol/L): 30 % of no-inhibitor | IC50 (BCRP [8]): > 80 µM | BCRP band intensity (% of no-inhibitor) (BCRP [8]; 5 μmol/L): 95 % of no-inhibitor | BCRP band intensity (% of no-inhibitor) (BCRP [8]; 20 μmol/L): 72 % of no-inhibitor | BCRP band intensity (% of no-inhibitor) (BCRP [8]; 80 μmol/L): 58 % of no-inhibitor
